Patent US11396517B1, “Exo-aza spiro inhibitors of menin-MLL interaction” (Janssen Pharmaceutica NV, priority 2017, dated 2022)
Where two headings read alike, the source gives them in different places.

Tests used:
menin = target: T1, menin (Homo sapiens, UniProt O00255, T541A); assay: Menin/MLL homogenous time-resolved fluorescence (HTRF) assay; type: binding
T1 construct: Menin (a.a. 1-610-6×his tag)
T1 sequence (O00255 with tags, fused parts or gaps T541A): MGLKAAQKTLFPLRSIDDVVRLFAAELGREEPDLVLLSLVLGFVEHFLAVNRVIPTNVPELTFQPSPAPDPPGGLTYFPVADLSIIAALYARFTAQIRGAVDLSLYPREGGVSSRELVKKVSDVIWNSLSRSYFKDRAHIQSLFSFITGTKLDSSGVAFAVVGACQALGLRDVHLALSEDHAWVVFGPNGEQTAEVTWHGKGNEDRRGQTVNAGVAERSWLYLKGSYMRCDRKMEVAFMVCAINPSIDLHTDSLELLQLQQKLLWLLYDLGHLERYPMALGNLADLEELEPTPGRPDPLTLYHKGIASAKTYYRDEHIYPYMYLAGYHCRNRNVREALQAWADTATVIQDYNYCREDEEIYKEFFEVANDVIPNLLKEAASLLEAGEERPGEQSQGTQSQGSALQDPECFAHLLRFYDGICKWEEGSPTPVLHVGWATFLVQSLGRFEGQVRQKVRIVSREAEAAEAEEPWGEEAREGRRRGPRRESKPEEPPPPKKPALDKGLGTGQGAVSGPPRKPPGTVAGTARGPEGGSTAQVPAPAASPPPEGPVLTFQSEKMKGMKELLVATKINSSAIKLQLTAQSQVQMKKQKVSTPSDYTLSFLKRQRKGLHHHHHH
Outline: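 Terbium-labeled menin (aa 1-610, His-tagged; […]) preincubated 5 min with compound, then 75 nM FITC-MBM1 peptide for 15 min, ambient, Tris pH 7.5, 0.5% DMSO. HTRF 520/490 ratio; 11-point 3-fold titration; IC50 from % inhibition fit.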

MOLM14 = assay: Proliferation assay B (spheroid assay) MOLM14; type: cell-based, human; conditions: MOLM14 cells, confluence at day 8, absolute IC50, read-out: (3b) Spheroid assay MOLM14 (IC50(μM)) Assay B
Protocol: 3b) Proliferation Assay B
The anti-proliferative effect of menin/MLL protein/protein interaction inhibitor test compounds was assessed in human leukemia cell lines. The cell lines MV-4-11 and MOLM14 harbor MILL translocations and express the MILL fusion proteins MLL-AF4 and MLL-AF9, respectively, as well as the wildtype protein from the second allele. […] K562 was used as a control cell line containing two MLL wildtype alleles in order to exclude compounds that display general cytotoxic effects.
MV-4-11 and MOLM14 were cultured in RPMI-1640 (Sigma Aldrich) supplemented with 10% fetal bovine serum (HyClone), 2 mM L-glutamine (Sigma Aldrich) and 50 μg/ml gentamycin (Gibco). K562 were propagated in RPMI-1640 (Sigma Aldrich) supplemented with 20% fetal bovine serum (HyClone), 2 mM L-glutamine (Sigma Aldrich) and 50 μg/ml gentamycin (Gibco).
In order to assess the anti-proliferative effects, 1,500 MV-4-11, 300 MOLM14 cells or 750 K562 cells were seeded in 200 μl media per well in 96-well round bottom, ultra-low attachment plates (Costar, catalogue number 7007). Cell seeding numbers were chosen based on growth curves to ensure linear growth throughout the experiment. Test compounds were added at different concentrations and the DMSO content was normalized to 0.3%. Cells were incubated for 8 d at 37° C. and 5% CO2. Spheroid like growth was measured in real-time by live-cell imaging (IncuCyteZOOM, Essenbio, 4× objective) acquiring images at day 8. Confluence (%) as a measure of spheroid size was determined using an integrated analysis tool.
In order to determine the effect of the test compounds over time, the confluence in each well as a measure of spheroid size, was calculated. Confluence […] at the beginning of the experiment (t=0) was used as baseline for the calculation.
Absolute IC50 values were calculated as percent change in confluence as follows:
LC=Low Control: cells treated with 1 μM of the cytotoxic agent staurosporin
HC=High Control: Mean confluence (%) (DMSO treated cells) % Effect=100−(100*(Sample−LC)/(HC−LC))
To determine the IC50 a curve is fitted to the plot of % Effect vs Log 10 compound concentration using a sigmoidal fit with a variable slope and fixing the maximum to 100% and the minimum to 0%.

[1] = location 2, read-out: (2) location 2 Menin HTRF assay (IC50 (nM))

Row | Compound | IC50 (menin; [1]) | IC50 (MOLM14; Homo sapiens, MOLM-14, 192 h) | IC50 (MOLM14) | IC50 (menin; location 1, read-out: (2) location 1 Menin HTRF assay (IC50 (nM)))
1 | N#Cc1ccc(NC2CC3(CCN(c4ncnc5sc(CC(F)(F)F)cc45)C3)C2)cn1 (mixture of isomers) [Compound 176] | 18.7 nM | 1.55 µM |  | 
2 | CN(C)CCN(C)C(=O)c1ccc(NC2CC3(CCN(c4ncnc5sc(CC(F)(F)F)cc45)C3)C2)cc1 (mixture of isomers) [Compound 180] | 43.4 nM | > 3.75 µM |  | 
3 | CC(NC(=O)c1ccc(NC2CC3(CCN(c4ncnc5sc(CC(F)(F)F)cc45)C3)C2)cc1)C1CCN(S(C)(=O)=O)CC1 (mixture of isomers) [Compound 191] | 7.9 nM | 1.22 µM |  | 
4 | CC(CN1CCN(S(C)(=O)=O)CC1)NC(=O)c1ccc(NC2CC3(CCN(c4ncnc5sc(CC(F)(F)F)cc45)C3)C2)cc1 (mixture of isomers) [Compound 192] | 13.1 nM | 1 µM |  | 
5 | CC(CN(C)C)NC(=O)c1ccc(NC2CC3(CCN(c4ncnc5sc(CC(F)(F)F)cc45)C3)C2)cc1 (mixture of isomers) [Compound 193] | 4.2 nM | 0.46 µM |  | 
6 | O=c1[nH]c2ccc(NCC3CC4(CCN(c5ncnc6sc(CC(F)(F)F)cc56)C4)C3)cc2[nH]1 (mixture of isomers) [Compound 198] | 141 nM | > 3.75 µM |  | 
7 | CNC(=O)c1ccc(NC2CC3(CCN(c4ncnc5sc(CC(F)(F)F)cc45)C3)C2)cc1Cl (mixture of isomers) [Compound 214] | 9.4 nM | > 3.75 µM |  | 
8 | CS(=O)(=O)N1CCN(CCn2c(=O)[nH]c3ccc(NC4CC5(CCN(c6ncnc7sc(CC(F)(F)F)cc67)C5)C4)cc32)CC1 (mixture of isomers) [Compound 221] | 4000 nM | > 3.75 µM |  | 
9 | CS(=O)(=O)N1CCN(CCn2c(=O)[nH]c3cc(NC4CC5(CCN(c6ncnc7sc(CC(F)(F)F)cc67)C5)C4)ccc32)CC1 (mixture of isomers) [Compound 222] | 418 nM | > 3.75 µM |  | 
10 | CNC(=O)c1ccc(NC2CC3(CCN(c4ncnc5sc(CC(F)(F)F)cc45)C3)C2)cc1CCCN(C)C (mixture of isomers) [Compound 236] | 80 nM | > 3.75 µM |  | 
11 | CN1CCC(COc2cc(NC3CC4(CCN(c5ncnc6sc(CC(F)(F)F)cc56)C4)C3)ccc2C#N)CC1 (mixture of isomers) [Compound 241] | 114 nM | 2.64 µM |  | 
12 | CNc1nc(N2CCC3(CC(Nc4ccc5c(c4)oc(=O)n5CCN4CCN(S(C)(=O)=O)CC4)C3)C2)c2cc(CC(F)(F)F)sc2n1 (mixture of isomers) [Compound 250] | 146 nM | > 3.75 µM |  | 
13 | CNC(=O)c1cnc(NC2CC3(CCN(c4ncnc5sc(CC(F)(F)F)cc45)C3)C2)nc1 (mixture of isomers) [Compound 257] | 10.6 nM | > 3.75 µM |  | 
14 | CNC(=O)c1ccc(NC2CC3(CCN(c4ncnc5sc(CC(F)(F)F)cc45)C3)C2)cc1 (mixture of isomers) [Compound 329] | 2 nM |  | 2.54 µM | 
15 | CS(=O)(=O)N1CCC(C#N)(c2ccc(NC3CC4(CCN(c5ncnc6sc(CC(F)(F)F)cc56)C4)C3)cc2)CC1 (mixture of isomers) [Compound 340] | 7.1 nM | 2.47 µM |  | 
16 | CS(=O)(=O)c1ccc(NC2CC3(CCN(c4ncnc5sc(CC(F)(F)F)cc45)C3)C2)cc1 (mixture of isomers) [Compound 342] | 4.8 nM | > 3.75 µM |  | 
17 | CS(=O)(=O)Nc1ccc(NC2CC3(CCN(c4ncnc5sc(CC(F)(F)F)cc45)C3)C2)cc1 (mixture of isomers) [Compound 343] | 4.9 nM | > 3.75 µM |  | 

Row | Compound | IC50 (menin; [1]) | IC50 (MOLM14; Homo sapiens, MOLM-14, 192 h) | IC50 (MOLM14) | IC50 (menin; location 1, read-out: (2) location 1 Menin HTRF assay (IC50 (nM)))
18 | CS(=O)(=O)Cc1ccc(NC2CC3(CCN(c4ncnc5sc(CC(F)(F)F)cc45)C3)C2)cc1 (mixture of isomers) [Compound 344] | 13.4 nM | > 3.75 µM |  | 
19 | O=C1OCCN1c1ccc(NC2CC3(CCN(c4ncnc5sc(CC(F)(F)F)cc45)C3)C2)cc1 (mixture of isomers) [Compound 345] | 6.8 nM | 2.33 µM |  | 
20 | O=C1NCCN1c1ccc(NC2CC3(CCN(c4ncnc5sc(CC(F)(F)F)cc45)C3)C2)cc1 (mixture of isomers) [Compound 346] | 7.3 nM | 2.11 µM |  | 
21 | O=C1OCCN1Cc1ccc(NC2CC3(CCN(c4ncnc5sc(CC(F)(F)F)cc45)C3)C2)cc1 (mixture of isomers) [Compound 347] | 9.1 nM | 3.18 µM |  | 
22 | NC(=O)Cc1ccc(NC2CC3(CCN(c4ncnc5sc(CC(F)(F)F)cc45)C3)C2)cc1 (mixture of isomers) [Compound 348] | 14.5 nM | > 3.75 µM |  | 
23 | CS(=O)(=O)N1CCN(CCn2c(=O)oc3ccc(CNC4CC5(CCN(c6ncnc7sc(CC(F)(F)F)cc67)C5)C4)cc32)CC1 (mixture of isomers) [Compound 349] | 19.3 nM | > 3.75 µM |  | 
24 | FC(F)(F)Cc1cc2c(N3CCC4(CC(Nc5ccc(CN6CCOCC6)cc5)C4)C3)ncnc2s1 (mixture of isomers) [Compound 350] | 21.1 nM | 3.55 µM |  | 
25 | CS(=O)(=O)N1CCN(Cc2ccc(NC3CC4(CCN(c5ncnc6sc(CC(F)(F)F)cc56)C4)C3)cc2)CC1 (mixture of isomers) [Compound 351] | 15.5 nM | 3.51 µM |  | 
26 | Nc1nc(N2CCC3(CC(Nc4ccc5[nH]c(=O)[nH]c5c4)C3)C2)c2cc(CC(F)(F)F)sc2n1 (mixture of isomers) [Compound 381] | 9.4 nM | > 3.75 µM |  | 
27 | CNC(=O)c1ccc(NC2CC3(CCN(c4ncnc5sc(CC(F)(F)F)cc45)C3)C2)c(Cl)c1 (single isomer, unassigned) [Compound 69] | 1.7 nM |  | 0.69 µM | 
28 | CN1CCC(c2cc(NC3CC4(CCN(c5ncnc6sc(CC(F)(F)F)cc56)C4)C3)ccc2C#N)CC1 (single isomer, unassigned) [Compound 80] | 8.7 nM |  | 0.95 µM | 
29 | COCCNC(=O)c1ccc(NC2CC3(CCN(c4ncnc5sc(CC(F)(F)F)cc45)C3)C2)cc1 (single isomer, unassigned) [Compound 86] | 91.8 nM | > 3.75 µM |  | 
30 | O=C(NCCN1CCOCC1)c1ccc(NC2CC3(CCN(c4ncnc5sc(CC(F)(F)F)cc45)C3)C2)cc1 (single isomer, unassigned) [Compound 88] | 3.8 nM | 0.99 µM |  | 
31 | Cn1c(=O)[nH]c2cc(NC3CC4(CCN(c5ncnc6sc(CC(F)(F)F)cc56)C4)C3)ccc21 (single isomer, unassigned) [Compound 90] | 20.2 nM | 0.85 µM |  | 
32 | CS(=O)(=O)N[C@H]1CC[C@H](NC2CC3(CCN(c4ncnc5sc(CC(F)(F)F)cc45)C3)C2)CC1 (single isomer, unassigned) [Compound 103] | 1200 nM | > 3.75 µM |  | 1160 nM
33 | N#Cc1ccc(NC2CC3(CCN(c4ncnc5sc(CC(F)(F)F)cc45)C3)C2)nc1 (single isomer, unassigned) [Compound 174] |  |  | 2.94 µM | 
34 | N#Cc1ccc(NC2CC3(CCN(c4ncnc5sc(CC(F)(F)F)cc45)C3)C2)nc1 (single isomer, unassigned) [Compound 175] | 33.4 nM |  | 1.09 µM | 
